We go through nine compounds from patent publication US20040242974A1, “Treatment of refractory depression with an opiate antagonist and an antidepressant” (priority 2001, published 2004).

The test system of data set [1] is depression. Nature of the data set: Clinical observation / patient report of response to medication (case reports). The data set is classed as in vivo, human. The note with it: A person; for Response to antidepressants in the past: earlier episodes of unipolar depression, recurrent type. Here is the method:
Both antidepressants were stopped and they were then administered desipramine (a tricyclic antidepressant) up to 150 mg./day for 4 weeks. […] Desipramine was discontinued and a person was started on a course of electric shock treatment (ECT) on an outpatient basis. They received a total number of 8 treatments, administered 2 times per week.
(§1) Mrs. […] Lithium carbonate 300 mg. b.i.d. was added to the Prozac for one week, and afterward Prozac was increased over the next 4 weeks to 60 mg./day. […] In succession, they were tried on amitriptyline up to 300 mg./day with monitoring of medication blood levels, and venlafaxine up to 375 mg./day.

The conditions of data set [2]: A person; lithium carbonate 300 mg b.i.d. Here is the method: as §1
In data set [3] the test system is refractory depression characterized by dissociation. Nature of the data set: Glover Numbing Scale (GNS) self-report questionnaire measuring numbness/dissociation in the treated patient. The data set is classed as in vivo, human. From the text: The Glover Numbing Scale was constructed to measure symptoms associated with the numb responses, and provides an adequate measure for determining whether a patient is in a dissociated state. Both males and females with major depression evidenced a bimodal distribution of scores on the GNS with a distance of three standard deviations between their respective means. The GNS has identified a unique subgroup within the population of people diagnosed with major depression who manifest the unique phenomenological experience and associated symptoms of having no feelings. […] By evaluating a patient with the Glover Numbing Scale prior to administration of an opiate antagonist, and reassessing the patient after treatment, one of skill in the art can readily determine if the opiate antagonist is reversing or alleviating dissociation.
In one embodiment, the Glover Numbing Scale is a 35-item self-report questionnaire that systematically measures the frequency of experiences associated with “numbness,” an essential symptom of dissociation. Each item is rated on a seven-point scale by the patient, with scores corresponding to the following responses: 1, never; 2, very rarely; 3, rarely; 4, occasionally; 5, frequently, 6, very frequently; and 7, always. The highest possible score according to the Glover Numbing Scale is 245 (35 items by 7 points per item); a higher score indicates a more persistent degree of numbness and associated symptoms of dissociation. […] See S. Ramirez, supra at 194-95. According to the present invention, a Glover Numbing Scale score greater than about 100 should be considered consistent with the presence of dissociation. […] In another embodiment, a GNS score less than about 60 can be considered clinically non-significant.
That is, according to one embodiment of the present invention, a patient evaluated according to the Beck Depression Inventory to have a total BDI of about 10 or more, would be diagnosed as suffering from depression. According to the present invention, the depressed patient would then be evaluated according to the Glover Numbing Scale to assess the refractory nature of the patient's depression. If the patient scored about 100 or above, and positively to any of the eight salient items on the GNS, the patient is then affirmatively diagnosed as suffering from refractory depression characterized by dissociation according to one embodiment of the present invention. According to the present invention, the diagnosis may be made immediately after evaluating the patient according to the Glover Numbing Scale in conjunction with the Beck Depression Inventory in the context of an initial diagnostic assessment. The 35 items of the Glover Numbing Scale (GNS) describe the breadth of problems that can be associated with dissociation. Eight of the 35 items, however, uniquely discriminate dissociative experiences from symptoms of depression at a very high degree of probability. It is recommended that these eight items be scored separately at the time of the initial evaluation, and be used to monitor the patient's response to treatment at regular intervals until the patient is in full remission or has achieved the maximum beneficial response to medication.
At the time of remission the patient's responses to all of the other […] items on the GNS can be individually assessed by the clinician to ascertain if any residual symptoms are present which may require further attention. […]

For data set [4] the test system is unchanged. Nature of the data set: Beck Depression Inventory (BDI) questionnaire measuring depression in the treated patient. In kind it is in vivo, human. From the text: Although any known test for measuring depression may be used as an indicator or measure of depression, the Beck Depression Inventory (“BDI”) is a preferred test for the present invention. The Beck Depression Inventory is a questionnaire developed by Aaron T. Beck, M.D. in 1978 to measure the presence and severity of depression. This test provides an exemplary method of measuring depression over the course of treatment according to the present invention. This test can also be used for reassessing a patient during treatment. The reassessment may be used to determine choice and dosage of antidepressant. The second edition of the Beck Depression Inventory is a 21-item questionnaire with each item rated on a four-point Likert scale (0-3) with total scores ranging from 0 to 63. A higher score indicates a more severe level of depression. Generally, a total score below 10 indicates no depression; a score from 10-16 indicates mild depression; 17-29 indicates moderate depression; and 30-63 indicates severe depression. According to the present invention, a score of about 10 or above would indicate diagnosis and treatment according to the present invention, with the patient more preferably presenting a BDI score of about 17 or above. A BDI score of less than about 10 is clinically non-significant. Eleven items of the BDI specifically identify how a depressed person thinks and feels about himself or herself. […] In paraphrased form they are: feeling disappointment in oneself; critical of oneself; suicidal thoughts; sadness; discouraged about the future; feelings of being punished; guilty; feeling like a failure; feeling a lack of satisfaction; feeling old/unattractive/ugly; and loss of interest in people. See S. Ramirez, supra.

For data set [5], the system named is patient. Nature of the data set: Side effects reported by the patient during treatment. The data set is classed as in vivo, human. Conditions: A person; nalmefene 50 to 150 mg b.i.d. Here is the method:
They were reassessed with the BDI and the GNS. One week later a person was able to identify their mood as sad and lonely. […] Their BDI was now scored at 20 and their GNS score fell to 70.
It was decided to maintain the patient on amitriptyline while introducing nalmefene 50 mg. b.i.d. Four days later the dose of nalmefene was doubled. A person was monitored for side effects and changes of mood, using the eight salient items of the GNS and the eleven salient items of the BDI as guides. Mrs. […] During each visit the dose was […] 50 mg. to a final dose of 200 mg./day. Mrs.

[6] abbreviates: lithium carbonate 300 mg b.i.d. added to Prozac, Prozac increased to 60 mg/day over 4 weeks.
Where [7] appears, read: A person, SAM-e 400 mg in divided doses, 800 mg five days later, started after the nalmefene course, one week afterward.

Where “and” joins values, the source holds several entries; their conditions need not be identical. Identical values can stand only once.

Consider `CC(NC(C)(C)C)C(=O)c1cccc(Cl)c1` (stereo not drawn) [Bupropion], for which, in data set [1] (Bupropion (sustain released) up to 300 mg/day added to paxil, other than some improvement in level of energy), the Clinical response entry is reported as “little benefit”.
With `O=C([O-])[O-].[Li+].[Li+]` [Lithium carbonate], the Clinical response entry in data set [1] (setting [6]) was “lack of response”. In data set [2], the Serum lithium levels was 0.6 and 0.7.
Consider `Fc1ccc([C@@H]2CCNC[C@H]2COc2ccc3c(c2)OCO3)cc1` [Paxil], for which, in data set [1] (Paxil up to 60 mg/day, unsuccessfully administered), the Clinical response result is on record as “mild to moderate calming effect”. The “Response to antidepressants in the past” value in data set [1] was “good responses”.
Consider `CNCCC(Oc1ccc(C(F)(F)F)cc1)c1ccccc1` (stereo not drawn) [Prozac], for which the Clinical response entry in data set [1] (initial treatment with Prozac, otherwise unchanged) is “reducing irritability”; in data set [1] (setting [6]), “lack of response”.
Regarding `C[S+](CC[C@H](N)C(=O)[O-])C[C@H]1O[C@@H](n2cnc3c(N)ncnc32)[C@H](O)[C@@H]1O` (stereo partly drawn) [SAM-e], in data set [3] (setting [7]), the GNS score came out at 40. Moreover, the BDI score in data set [4] (setting [7]) worked out at 6. Further, in data set [1] (SAM-e 400 then 800 mg, started after the nalmefene course, one week afterward), the “Clinical response (mood and energy)” value is “marked improvement in mood and energy level”.
For the compound `CN(C)CCC=C1c2ccccc2CCc2ccccc21` [amitriptyline], the “Clinical response (antidepressant effect)” value in data set [1] (amitriptyline maintained while nalmefene introduced (50 mg b.i.d., doubled after four days)) is recorded as “began to feel the antidepressant effect for the first time”. Further, the Clinical response entry in data set [1] (amitriptyline up to 300 mg/day, calming effect with some reduction of sadness and emptiness) is “improved their level of energy”.
In the case of `CNCCCN1c2ccccc2CCc2ccccc21` [desipramine], in data set [1] (desipramine up to 150 mg/day for 4 weeks, remained essentially depressed), the Clinical response result is reported as “some decrease of crying spells”. For the same compound, in data set [1], the “Response to antidepressants in the past” value was “good responses”.
On to `C=C1CC[C@@]2(O)[C@H]3Cc4ccc(O)c5c4[C@@]2(CCN3CC2CC2)[C@H]1O5` [nalmefene], for which the GNS score was 70 in data set [3] (A person (Example 1), nalmefene 50 mg b.i.d. 3 days, 100 mg b.i.d. 4 days, then 150 mg b.i.d., one week later, score before treatment 142) and 38 in data set [3] (A person (Example 2), one week after nalmefene 200 mg b.i.d. reached, maintained on amitriptyline (final 200 mg/day), score before 148). Further, the “Salient items of the GNS” value is listed as “not to have been experienced” in data set [3] (A person, nalmefene 200 mg b.i.d. with amitriptyline) and “not have been experienced” in data set [3] (A person, nalmefene up to 150 mg b.i.d., during the past week). The BDI score was found to be 20 in data set [4] (A person (Example 1), nalmefene 50 mg b.i.d. 3 days, 100 mg b.i.d. 4 days, then 150 mg b.i.d., one week later, score before treatment 23) and 5 in data set [4] (A person (Example 2), one week after nalmefene 200 mg b.i.d. reached, maintained on amitriptyline (final 200 mg/day), score before 24). In data set [1] (nalmefene up to 150 mg b.i.d., one week later), the “Clinical response (feelings)” value was “no longer experienced any lack of feelings”. For the same compound, in data set [1] (one week after nalmefene 200 mg b.i.d. reached, with amitriptyline), the “Clinical response (patient report)” value was “felt their usual self once again”. In addition, the “Side effects of drowsiness and tiredness” value in data set [5] is “mild and transient”.
For `COc1ccc(C(CN(C)C)C2(O)CCCCC2)cc1` (stereo not drawn) [venlafaxine], in data set [1] (venlafaxine up to 375 mg/day, calming effect with some reduction of sadness and emptiness), the Clinical response result is “improved their level of energy”.
